# Measurements reported in ChEMBL document CHEMBL1201862, “PubChem BioAssay data set” (2004).
# Calls of active or inactive are those of the source.
# Legend:
# [1] = biological target: T1, Hepatocyte nuclear factor 4-alpha (Homo sapiens, UniProt P41235); assay type: functional, cell-based;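 note: biochemical luminescence-based dose-response counterscreen measuring inhibition of HNF4 dimerization, run alongside a screen for blockers of ABHD5–perilipin-5 interaction; split luciferase complementation of HNF4 fusion proteins in cell lysate measuring dimerization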
# T1 sequence (P41235 whole entry): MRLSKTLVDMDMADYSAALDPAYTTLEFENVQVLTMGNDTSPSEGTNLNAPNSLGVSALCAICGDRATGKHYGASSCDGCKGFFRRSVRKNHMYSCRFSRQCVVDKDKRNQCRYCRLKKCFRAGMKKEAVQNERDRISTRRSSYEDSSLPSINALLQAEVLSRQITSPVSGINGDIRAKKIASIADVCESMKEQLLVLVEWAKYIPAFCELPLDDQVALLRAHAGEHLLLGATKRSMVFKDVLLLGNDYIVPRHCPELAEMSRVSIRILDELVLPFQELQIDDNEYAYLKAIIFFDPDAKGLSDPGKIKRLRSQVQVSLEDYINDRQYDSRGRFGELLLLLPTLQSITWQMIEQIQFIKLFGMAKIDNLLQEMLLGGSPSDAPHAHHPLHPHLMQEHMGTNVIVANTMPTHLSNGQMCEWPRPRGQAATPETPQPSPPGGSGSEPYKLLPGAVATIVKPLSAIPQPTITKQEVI
# [2] = fluconazole-exposed Candida albicans growth modulators – fluorescence, retest, confirmation (AID 2467); assay type: functional, cell-based
# [3] = NIH-3T3 fibroblast cytotoxicity, dose response, cytotoxicity control, cell-based, fluorescence, Alamar Blue, secondary assay (AID 2327); assay type: functional;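 note: NIH-3T3 mouse fibroblasts cultured with fluconazole at 8 µg/mL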
# [4] = biological target: Protein disulfide-isomerase (Homo sapiens, UniProt P07237); test: inhibition of PDI-driven insulin aggregation – biochemical, turbidity, absorbance, cherry-picked samples, dose response (AID 602350); assay type: functional
# Sequence of Protein disulfide-isomerase (P07237 whole entry): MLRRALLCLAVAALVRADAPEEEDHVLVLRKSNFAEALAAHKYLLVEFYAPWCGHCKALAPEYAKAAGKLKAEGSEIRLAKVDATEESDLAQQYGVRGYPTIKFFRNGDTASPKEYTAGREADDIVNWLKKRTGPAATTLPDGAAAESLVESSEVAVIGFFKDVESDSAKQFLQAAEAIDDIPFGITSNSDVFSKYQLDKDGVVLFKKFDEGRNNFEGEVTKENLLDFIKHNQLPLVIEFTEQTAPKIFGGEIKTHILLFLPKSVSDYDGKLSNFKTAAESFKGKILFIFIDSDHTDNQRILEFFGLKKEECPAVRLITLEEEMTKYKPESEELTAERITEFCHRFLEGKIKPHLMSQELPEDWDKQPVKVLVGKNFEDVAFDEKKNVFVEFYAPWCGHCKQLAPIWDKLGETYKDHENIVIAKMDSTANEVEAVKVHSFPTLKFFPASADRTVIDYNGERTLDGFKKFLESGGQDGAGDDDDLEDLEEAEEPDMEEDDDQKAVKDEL
# [5] = biological target: Latent membrane protein 1 (Human herpesvirus 4 (strain B95-8), UniProt P03230); test: LMP1 TES1 pathway selectivity over dsRED control – imaging, HEK293T, dual-color eGFP/dsRED, cherry-picks, selectivity assay for LMP1 NF-kB inhibitor project, dose response (AID 588398); assay type: functional, cell-based
# Sequence of Latent membrane protein 1 (P03230 whole entry): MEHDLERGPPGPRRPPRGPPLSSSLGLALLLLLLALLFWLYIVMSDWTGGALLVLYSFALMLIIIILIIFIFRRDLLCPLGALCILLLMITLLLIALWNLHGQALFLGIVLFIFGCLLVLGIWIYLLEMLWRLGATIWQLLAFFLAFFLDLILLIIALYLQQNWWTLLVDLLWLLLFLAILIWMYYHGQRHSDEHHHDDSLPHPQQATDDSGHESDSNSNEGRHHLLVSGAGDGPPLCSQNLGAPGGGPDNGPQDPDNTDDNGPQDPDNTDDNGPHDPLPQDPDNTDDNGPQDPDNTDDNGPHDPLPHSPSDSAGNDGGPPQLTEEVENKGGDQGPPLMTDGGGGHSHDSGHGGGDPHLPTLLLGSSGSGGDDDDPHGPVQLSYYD
# [6] = suppression of NO production in INS-1E cells – cell-based, Griess absorbance, dry powder, set 3, dose response (AID 488870); assay type: functional; details: Rattus norvegicus
# INS1 [7] = test: suppression of NO production in INS-1E cells – cell-based, Griess absorbance, dry powder, set 2, dose response (AID 488868); assay type: functional; details: Rattus norvegicus
# INS1 [8] = test: cellular ATP toxicity in rat beta cells – cell-based, CellTiter-Glo luminescence, INS-1E, dry powder, cytotoxicity control for beta-cell cytokine protection project, dose response (AID 488864); assay type: functional
# CAAX prenyl protease 2 [9] = biological target: T2, CAAX prenyl protease 2 (Saccharomyces cerevisiae S288c, UniProt Q03530); assay type: biochemical
# T2 sequence (Q03530 whole entry): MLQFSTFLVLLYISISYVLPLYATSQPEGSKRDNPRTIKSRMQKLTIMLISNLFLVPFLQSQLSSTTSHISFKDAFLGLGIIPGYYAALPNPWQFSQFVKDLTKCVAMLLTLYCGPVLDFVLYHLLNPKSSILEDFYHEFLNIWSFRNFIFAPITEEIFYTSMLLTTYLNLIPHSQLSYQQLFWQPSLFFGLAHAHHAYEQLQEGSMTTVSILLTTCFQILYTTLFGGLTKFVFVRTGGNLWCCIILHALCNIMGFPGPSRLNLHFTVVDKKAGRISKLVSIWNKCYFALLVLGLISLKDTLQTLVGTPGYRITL
# CAAX prenyl protease 2 [10] = biological target: T2, CAAX prenyl protease 2; test: inhibition of Rce1p peptide cleavage – biochemical, plate reader, dry powder retest, dose response (AID 588851)
# [11] = toxicity toward cultured mammalian cells – cell-based, plate reader, cherry-pick samples, cytotoxicity control, dose response (AID 504397); assay type: functional
smiles,measurement,setting,value
O=C(/C=C/c1ccc(NC(=O)c2ccccc2-c2ccccc2C(=O)O)cc1)c1ccccc1,IC50,[1],8.66 µM (active)
same,EC50,[2],> 38 µM (not active)
same,EC50,[3],> 150 µM (inactive)
same,AC50,[4],11.4 µM (active)
O=C(Nc1ccccn1)NC1CCCCC1,AC50,[5],66.5 µM (active)
C[C@@H]1CN([C@@H](C)CO)C(=O)c2cccc(NC(=O)Nc3cccc4ccccc34)c2O[C@H]1CN(C)S(=O)(=O)c1ccc(OC(F)(F)F)cc1,AC50,[6],20.3 µM (active)
same,AC50,INS1 [7],16.5 µM (active)
same,AC50,INS1 [8],18.5 µM (active)
Cc1ccc(SCc2c(C(=O)N/N=C/c3ccccc3)nnn2-c2nonc2N)cc1,AC50,CAAX prenyl protease 2 [9],141 nM (active)
same,AC50,CAAX prenyl protease 2 [10],3.7 µM (active)
same,AC50,[11],73 µM (active)
